“Also recorded” adds a separate entry of the source.

Common to all, as to type: cell-based
In assay [1] the test system is Chlamydia trachomatis (Ctr) strain L2/434/Bu. Description: microbe, parasite or virus in culture. As to conditions: for inhibition at 25 µM / inhibition at 75 µM: Chlamydia trachomatis, HeLa 229, progeny infection, HeLa229, MOI1, versus solvent-treated cells; for inhibition at 25 µM: read-out: Cellular protection at 25 μM; for inhibition at 75 µM: read-out: Cellular protection at 75 μM; for protection against Ctr progeny infection at 25 μM (in words) / protection against Ctr progeny infection at 75 μM (in words): HeLa229; for protection against Ctr progeny infection at 25 μM (in words): Table 1; for protection against Ctr progeny infection at 75 μM (in words): FIG. 7 and Table 1. How it is done: HeLa229 (ATCC CCL-2.1). Cells were grown in RPMI1640 medium (Glutamax, 10% FBS, w/o HEPES) (Invitrogen).
(§1) Chlamydia trachomatis (Ctr). Laboratory-adapted strain L2/434/Bu (ATCC VR902B) was used in assays. Full biological and genetic information is available for this strain including complete genome sequence and defined proteome. This strain has a relatively low particle to infectivity ratio, perform efficient cell infection and has a higher viability than standard genital tract isolates with faster developmental cycle. Culture conditions have been described in (Wang Y., Kahane S., Cutcliffe L. T., Skilton R. J., Lambden P. R., Clarke I. N. Development of a transformation system for Chlamydia trachomatis: Restoration of glycogen biosynthesis by acquisition of a plasmid shuttle vector. PLoS Pathogen, 2011, 7(9):e1002258. doi: 10.1371/journal.ppat.1002258).
Compound application during Chlamydia trachomatis infection. HeLa229 cells were pretreated with compound #20 and its derivatives in concentrations of 25 μM and 75 μM for 1 hour until Chlamydia trachomatis (MOI1) were added to the cells. Compounds were present during infection. To obtain progeny infection, compound treated cells were lysed 24 h post infection (hpi) and lysate was used to infect fresh HeLa 229 cells.
Infected cells of progeny infection were fixed with 4% Paraformaldehyde 48 hpi. Cells were stained for DAPI and Chlamydia trachomatis were detected by GFP-signal. Images are representative of n=2 independent experiments. Quantification of infected cells by Chlamydia trachomatis was realized from microscopy images with Image J software (FIG. 7) and cellular protection by compounds at 25 μM and 75 μM was then determined (Table 1) by comparison with solvent-treated cells (control) with the following equation: […]

For assay [2] the test system is unchanged. Description: Chlamydia trachomatis (Ctr) infectivity assay, HSP60 immunoblot of primary and progeny infection in HeLa229 cells.
Text: as §1
Compound application during Ctr infection. HeLa229 cells were pretreated with compound 20 in concentrations of 25, 50 and 75 μM for 30 min until Ctr (MOI1) were added to the cells. Compound 20 was present during infection.
Cells with primary infection were lysed 24 h post infection (hpi). To obtain progeny infection compound treated cells were lysed 48 hpi and lysate was used to infect fresh HeLa229 cells. Progeny infection was lysed 24 hpi and analyzed together with primary infection samples by immunoblot. Chlamydial growth was detected with antibodies against chlamydial HSP60 protein and Actin was used as loading control (FIG. 6).
(Immunoblotting shows a protein as a band on a membrane.)

Assay [3] relates to Simkania negevensis (Sn) strain Z. Description: Sn infectivity assays (primary and progeny infection) in HeLa229 cells. How it is done: Simkania negevensis (Sn) strain Z (ATCC VR-1471) was prepared as described previously (Mehlitz A, Karunakaran K, Herweg J A, Krohne G, van de Linde S, Rieck E, Sauer M, Rudel T. The chlamydial organism Sn forms ER vacuole contact sites and inhibits ER-stress. Cell Microbiol 2014; 16(8):1224-1243).
Briefly, HeLa229 cells were grown to 50-70% confluence, were inoculated with Sn in RPMI1640 with 5% FBS, for 6 h at 35° C. in a humidified incubator at 5% CO2. Medium was replaced by infection medium (RPMI1640, Glutamax, 5% FBS, w/o HEPES) and growth was allowed for 3 days. Cells were mechanically detached and bacteria were released using ˜2-5 mm glass beads (Carl Roth). Low speed supernatant (600×g, 4° C. and 5 min) was subjected to high-speed centrifugation (20,000×g, 4° C. and 30 min) to pellet bacteria. Bacteria were washed twice with 5 ml SPG (250 mM sucrose, 50 mM sodium phosphate, 5 mM glutamate, pH 7.4), aliquoted and stored at '80° C. in SPG.
40,000 HeLa cells were seeded in 12-well cluster plates, inhibitor-treated and infected as indicated in the respective experiment.
For infectivity assays cells were either fixed and stained at indicated time points (FIGS. 2,4; inclusion formation/primary infection) or bacteria were released via one freeze thaw cycle (−70° C./37° C.) followed by mechanical release through pipetting and transfer to fresh HeLa229 cells (1:25-1:50, progeny/infectivity). Cells were centrifuged for 1 h at 35° C. and medium exchanged to infection medium. Progeny was fixed at day 3 post infection and processed for staining (FIG. 3) or harvested for immunoblotting (FIG. 1). Infectivity assays were imaged on an automated fluorescence microscope Leica DMIR (FIG. 4). Numbers and average sizes of the SCV as well as host cell numbers were determined via GroEL and DAPI staining and images were analysed and quantified using FIJI (ImageJ) and Excel (Microsoft).
In this progeny assay, bacteria are first grown in Hela299 cells treated with inhibitors (compound 20 at a concentration of 50 and 75 μM) and the infectious particles from this primary infection are applied to fresh cells in the absence of inhibitor to measure the bacterial load (GroEL immunoblot) and inclusion formation (immunofluorescence microscopy).

In the case of `O=C(Nc1ccc(S(=O)(=O)Nc2nccs2)cc1)C12CC3CC(CC(C3)C1)C2` [m3, (3R,5R,7R)-N-(4-(N-(thiazol-2-yl)sulfamoyl)phenyl)adamantane-1-carboxamide], in assay [1], the inhibition at 25 µM was 46.9% and the inhibition at 75 µM turned out to be 87.8%.

With `COc1ccc(I)cc1CN[C@H]1C[C@H]2C[C@@H]([C@@H]1C)C2(C)C` [VP386, (1S,2S,3S,5R)-N-(5-iodo-2-methoxybenzyl)-2,6,6-trimethylbicyclo[3.1.1]heptan-3-amine], in assay [1], the “protection against Ctr progeny infection at 25 μM (in words)” value (from here on “protection … at 25 μM (in words)”) is on record as “full protection”, the “protection against Ctr progeny infection at 75 μM (in words)” value (“protection … at 75 μM (in words)” for short) is reported as “full protection”, the inhibition at 25 µM amounted to 100% and the inhibition at 75 µM was 100%.

`O=C(CC12CC3CC(CC(C3)C1)C2)N/N=C/c1ccc([N+](=O)[O-])o1` [m9, 2-((3R,5R,7R)-adamantan-1-yl)-N′-((E)-(5-nitrofuran-2-yl)methylene)acetohydrazide]: in assay [1], the “protection … at 25 μM (in words)” value is listed as “full protection”, the “protection … at 75 μM (in words)” value was “full protection”, the inhibition at 25 µM came out at 100% and the inhibition at 75 µM amounted to 100%.

Turning to `COc1ccc(Br)cc1CN[C@H]1C[C@H]2C[C@@H]([C@@H]1C)C2(C)C` [VP332, (1S,2S,3S,5R)-N-(5-bromo-2-methoxybenzyl)-2,6,6-trimethylbicyclo[3.1.1]heptan-3-amine], in assay [1], the “protection … at 25 μM (in words)” value is on record as “full protection”, the “protection … at 75 μM (in words)” value is listed as “full protection”, the inhibition at 25 µM came to 100% and the inhibition at 75 µM came to 100%.

As for `COc1ccc(Br)cc1CNC12CC3CC(CC(C3)C1)C2` [Compound 20, (3S,5S,7S)-N-(5-bromo-2-methoxybenzyl)adamantan-1-amine], the “effect on Ctr progeny infection at 50 μM” value in assay [2] (50 μM, HSP60 immunoblot) is “strongly reduced amounts of Ctr in the progeny”. Also, the “effect on Ctr progeny infection at 75 μM” value in assay [2] (75 μM, HSP60 immunoblot) is listed as “totally blocked progeny infection”. For the same compound, the “effect on chlamydial development (primary Ctr infection)” value in assay [2] (25, 50 and 75 μM, HSP60 immunoblot 24 hpi) is “slight inhibitory effect”. Further, in assay [3] (HeLa cells, 50 and 75 μM, GroEL immunoblot, relative inclusion number), the “effect on Sn progeny infection” value is “inhibitor effect; also recorded: inhibits”. Moreover, in assay [3] (HeLa cells, 50 and 75 μM, relative inclusion size, fluorescence microscopy), the “effect on Sn primary infection” value is reported as “inhibitor effect; also recorded: inhibits”. Moreover, the “concentration of maximal inhibition of Sn replication” value in assay [3] (HeLa cells, FIGS. 1, 2, 3 and 4) was 75 µM. For the same compound, in assay [3] (infected HeLa cells, versus DMSO-treated control), the “subcellular structure of Sn inclusions by transmission electron microscopy” value is “dramatically smaller and less sub-vacuoles and just few bacteria; also recorded: the number of Sn inclusions is reduced and the vacuole size is much reduced”. For the same compound, in assay [1], the inhibition at 25 µM came out at 19.9% and the inhibition at 75 µM was determined as 75.7%.

In the case of `C[C@@H]1[C@@H](NCc2ccc(I)cc2)C[C@H]2C[C@@H]1C2(C)C` [VP390, (1S,2S,3S,5R)-N-(4-iodobenzyl)-2,6,6-trimethylbicyclo[3.1.1]heptan-3-amine], in assay [1], the “protection … at 75 μM (in words)” value is reported as “full protection”, the inhibition at 25 µM is 91.8% and the inhibition at 75 µM turned out to be 100%.

Consider `COc1ccc(Br)cc1CNC12CC3CC(C)(CC(C)(C3)C1)C2` [RN-2-103, (1R,3R,5S,7R)-N-(5-bromo-2-methoxybenzyl)-3,5-dimethyladamantan-1-amine], for which, in assay [1], the “protection … at 75 μM (in words)” value is on record as “full protection”, the inhibition at 25 µM was 66.9% and the inhibition at 75 µM came to 100%.

On to `O=C(N/N=C/c1cccc([N+](=O)[O-])c1)NC12CC3CC(CC(C3)C1)C2` [m4, N-((3S,5S,7S)-adamantan-1-yl)-2-((E)-3-nitrobenzylidene)hydrazine-1-carboxamide], for which, in assay [1], the inhibition at 25 µM amounted to 22.8% and the inhibition at 75 µM was 81.6%.

(Values after US20160310448A1, “Adamantane or Pinene Derivatives for Use in the Treatment of Chlamydiales Infections” (Commissariat a l'Energie Atomique et aux Energies …, priority 2015, published 2016).)
